Tested on: mongrel dogs
Assay: circulatory pharmacological effectiveness on narcotised dogs, intravenous
Assay type: in vivo, dog
[1] = dog i.v. ISDN/9c 1, 1d 0.5 mg/kg, 40 min
[2] = dog i.v. ISDN/9c 1, 1d 0.5 mg/kg, 50 min
[3] = dog i.v. ISDN/9c 1, 1d 0.5 mg/kg, 60 min
[4] = dog i.v. ISDN/9c 1, 1d 0.5 mg/kg, 90 min
[5] = dog i.v. ISDN/9c 1, 1d 0.5 mg/kg, 120 min
[6] = dog i.v. ISDN/9c 1, 1d 0.5 mg/kg, 150 min
[7] = dog i.v. ISDN/9c 1, 1d 0.5 mg/kg, 180 min
[8] = dog i.v., before administration (v)

Structure (SMILES): Cn1c(=O)c2c(ncn2CCCN[C@H]2CO[C@H]3[C@@H]2OC[C@@H]3O[N+](=O)[O-])n(C)c1=O [Example 1d, 5-(3-Theophyllin-7-ylpropyl)-amino-5-desoxy-1.4;3.6-dianhydro-L-iditol 2-nitrate]
- BFFem: blood flow in the A. femoralis referred to 20 kg body weight [1]: 58.5 mL/min
- HF: heart frequency [1]: 97.5
- HLL: heart capacity left, referred to 20 kg body weight [1]: 0.43 W
- HLR: heart capacity right, referred to 20 kg body weight [1]: 50.8 mW
- HZV: heart minute volume, referred to 20 kg body weight [1]: 2.05 L/min
- SV: beat volume, referred to 20 kg body weight [1]: 21.5 mL
- WAP: pulmonalis resistance, referred to 20 kg body weight [1]: 0.50 U
- WFem: moralis resistance, referred to 20 kg body weight [1]: 0.25 KU
- WTP: total peripheral resistance, referred to 20 kg body weight [1]: 6.62 U
- dp/dt: rate of pressure increase in the left ventricle [1]: 2193.7 mm.Hg/sec
- APdiast: diastolic aorta pressure [2]: 85.9 mm.Hg
- APsyst: systolic aorta pressure [2]: 135.9 mm.Hg
- BFFem: blood flow in the A. femoralis referred to 20 kg body weight [2]: 62.2 mL/min
- HF: heart frequency [2]: 96.2
- HLL: heart capacity left, referred to 20 kg body weight [2]: 0.41 W
- HLR: heart capacity right, referred to 20 kg body weight [2]: 47.3 mW
- HZV: heart minute volume, referred to 20 kg body weight [2]: 1.93 L/min
- SV: beat volume, referred to 20 kg body weight [2]: 20.5 mL
- WAP: pulmonalis resistance, referred to 20 kg body weight [2]: 0.50 U
- WFem: moralis resistance, referred to 20 kg body weight [2]: 0.25 KU
- WTP: total peripheral resistance, referred to 20 kg body weight [2]: 7.24 U
- dp/dt: rate of pressure increase in the left ventricle [2]: 2006.2 mm.Hg/sec
- APdiast: diastolic aorta pressure [3]: 88.5 mm.Hg
- APsyst: systolic aorta pressure [3]: 136.8 mm.Hg
- BFFem: blood flow in the A. femoralis referred to 20 kg body weight [3]: 62.6 mL/min
- HF: heart frequency [3]: 95.5
- HLL: heart capacity left, referred to 20 kg body weight [3]: 0.39 W
- HLR: heart capacity right, referred to 20 kg body weight [3]: 46.0 mW
- HZV: heart minute volume, referred to 20 kg body weight [3]: 1.82 L/min
- LVEDP: end diastolic pressure in the left ventricle [3]: 8.06 mm.Hg
- SV: beat volume, referred to 20 kg body weight [3]: 19.4 mL
- WAP: pulmonalis resistance, referred to 20 kg body weight [3]: 0.46 U
- WFem: moralis resistance, referred to 20 kg body weight [3]: 0.26 KU
- WTP: total peripheral resistance, referred to 20 kg body weight [3]: 7.90 U
- dp/dt: rate of pressure increase in the left ventricle [3]: 1968.7 mm.Hg/sec
- APdiast: diastolic aorta pressure [4]: 92.8 mm.Hg
- APsyst: systolic aorta pressure [4]: 137.8 mm.Hg
- BFFem: blood flow in the A. femoralis referred to 20 kg body weight [4]: 57.4 mL/min
- HF: heart frequency [4]: 92.5
- HLL: heart capacity left, referred to 20 kg body weight [4]: 0.34 W
- HLR: heart capacity right, referred to 20 kg body weight [4]: 36.7 mW
- HZV: heart minute volume, referred to 20 kg body weight [4]: 1.57 L/min
- LVEDP: end diastolic pressure in the left ventricle [4]: 9.47 mm.Hg
- SV: beat volume, referred to 20 kg body weight [4]: 17.4 mL
- WAP: pulmonalis resistance, referred to 20 kg body weight [4]: 0.39 U
- WFem: moralis resistance, referred to 20 kg body weight [4]: 0.29 KU
- WTP: total peripheral resistance, referred to 20 kg body weight [4]: 9.39 U
- dp/dt: rate of pressure increase in the left ventricle [4]: 1743.7 mm.Hg/sec
- APdiast: diastolic aorta pressure [5]: 95.2 mm.Hg
- APsyst: systolic aorta pressure [5]: 139.7 mm.Hg
- BFFem: blood flow in the A. femoralis referred to 20 kg body weight [5]: 49.9 mL/min
- HF: heart frequency [5]: 96.5
- HLL: heart capacity left, referred to 20 kg body weight [5]: 0.35 W
- HLR: heart capacity right, referred to 20 kg body weight [5]: 34.9 mW
- HZV: heart minute volume, referred to 20 kg body weight [5]: 1.57 L/min
- LVEDP: end diastolic pressure in the left ventricle [5]: 9.47 mm.Hg
- SV: beat volume, referred to 20 kg body weight [5]: 17.0 mL
- WAP: pulmonalis resistance, referred to 20 kg body weight [5]: 0.35 U
- WFem: moralis resistance, referred to 20 kg body weight [5]: 0.36 KU
- WTP: total peripheral resistance, referred to 20 kg body weight [5]: 9.56 U
- dp/dt: rate of pressure increase in the left ventricle [5]: 1659.4 mm.Hg/sec
- APdiast: diastolic aorta pressure [6]: 92.8 mm.Hg
- APsyst: systolic aorta pressure [6]: 139.7 mm.Hg
- BFFem: blood flow in the A. femoralis referred to 20 kg body weight [6]: 49.5 mL/min
- HF: heart frequency [6]: 104.5
- HLL: heart capacity left, referred to 20 kg body weight [6]: 0.35 W
- HLR: heart capacity right, referred to 20 kg body weight [6]: 36.9 mW
- HZV: heart minute volume, referred to 20 kg body weight [6]: 1.61 L/min
- LVEDP: end diastolic pressure in the left ventricle [6]: 10.12 mm.Hg
- SV: beat volume, referred to 20 kg body weight [6]: 15.9 mL
- WAP: pulmonalis resistance, referred to 20 kg body weight [6]: 0.37 U
- WFem: moralis resistance, referred to 20 kg body weight [6]: 0.37 KU
- WTP: total peripheral resistance, referred to 20 kg body weight [6]: 8.10 U
- dp/dt: rate of pressure increase in the left ventricle [6]: 1640.6 mm.Hg/sec
- APdiast: diastolic aorta pressure [7]: 90.9 mm.Hg
- APsyst: systolic aorta pressure [7]: 137.8 mm.Hg
- BFFem: blood flow in the A. femoralis referred to 20 kg body weight [7]: 50.9 mL/min
- HF: heart frequency [7]: 114.0
- HLL: heart capacity left, referred to 20 kg body weight [7]: 0.37 W
- HLR: heart capacity right, referred to 20 kg body weight [7]: 38.3 mW
- HZV: heart minute volume, referred to 20 kg body weight [7]: 1.73 L/min
- LVEDP: end diastolic pressure in the left ventricle [7]: 10.5 mm.Hg
- SV: beat volume, referred to 20 kg body weight [7]: 15.5 mL
- WAP: pulmonalis resistance, referred to 20 kg body weight [7]: 0.32 U
- WFem: moralis resistance, referred to 20 kg body weight [7]: 0.32 KU
- WTP: total peripheral resistance, referred to 20 kg body weight [7]: 8.13 U
- dp/dt: rate of pressure increase in the left ventricle [7]: 1621.9 mm.Hg/sec
- APdiast: diastolic aorta pressure [8]: 76.9 mm.Hg
- APsyst: systolic aorta pressure [8]: 152.8 mm.Hg
- BFFem: blood flow in the A. femoralis referred to 20 kg body weight [8]: 51.5 mL/min
- HF: heart frequency [8]: 101.2
- HLL: heart capacity left, referred to 20 kg body weight [8]: 0.50 W
- HLR: heart capacity right, referred to 20 kg body weight [8]: 67.1 mW
- HZV: heart minute volume, referred to 20 kg body weight [8]: 2.35 L/min
- LVEDP: end diastolic pressure in the left ventricle [8]: 7.50 mm.Hg
- PAP: average pressure in the A. pulmonalis [8]: 15.59 mm.Hg
- SV: beat volume, referred to 20 kg body weight [8]: 23.4 mL
- WAP: pulmonalis resistance, referred to 20 kg body weight [8]: 0.46 U
- WFem: moralis resistance, referred to 20 kg body weight [8]: 0.29 KU
- WTP: total peripheral resistance, referred to 20 kg body weight [8]: 5.78 U
- dp/dt: rate of pressure increase in the left ventricle [8]: 1903.1 mm.Hg/sec
- PRV: pressure in the right atrium (dog, in vivo, iv): 3.09
- HF: heart frequency (iv, 0.5 mg/kg): 103.7
- dp/dt: rate of pressure increase in the left ventricle (iv, 0.5 mg/kg): 2306.2 mm.Hg/sec

From patent publication US4542137A, “Alkylaminodesoxy-1.4;3.6-dianhydrohexitol nitrates substituted by purine bases and pharmaceutical compositions” (priority 1980, dated 1985)
